Entries after “also recorded” stand apart in the source; their conditions may differ.
Key:
[1] = test system: aphakia mouse line, a genetic model of LID; assay: aphakia mouse model of LID, three paw dyskinesia scoring; assay type: in vivo, mice; conditions: for effect on AIMs induced by daily L-Dopa: aphakia mouse line
From the text: Inhibition of Smo by cyclopamine in thegenetic “aphakia ” model of dyskinesia INCREASES LIDs. Analogous to the use of the unilateral 6-OHDA model of LID, we tested whether Shh signaling effects the formation and display of LID in an independent, genetic model, the well-studied Aphakia mouse model. […] The hypo-dopaminergic state of these animals is thought to be similar to the dopaminergic state of Parkinson's disease patients. It is well established that these mice readily develop LID upon semi chronic dosing with L-Dopa. […] Daily systemic injections of L-Dopa (20 mg/kg, IP) results in progressive display of 3 paw dyskinesia over 7 days (FIG. 3, white bars. Co-injection of cyclopamine (5 mg/kg, IP) together with L-Dopa (20 mg/kg, IP) on day 8 results in a roughly 3 fold increase in 3-paw dyskinesia compared to day 7 (FIG. 3, see d8, black bar). Further daily co-injections of cyclopamine together with L-Dopa (5 mg/kg, IP and 20 mg/kg, IP, resp.) results in further increases in dyskinesia scores reaching 7 fold the score obtained after 7 days of L-Dopa only dosing (FIG. 3, see d11, black bar compared to d7, white bar).
Stimulation of Smo by SAG in a genetic model of dyskinesia DECREASES LIDs. Analogous to testing the effect of cyclopamine, we used the aphakia mouse line to determine whether stimulation of Shh signaling might reduce the display of established LID. We injected daily for 28 days L-Dopa (20 mg/kg; IP). On day 29 we co-injected SAG (20 mg/kg, IP) together with L-Dopa (20 mg/kg, IP). We scored 3 paw dyskinesia at day 28 (FIG. 9: white bar) and day 29 (FIG. 9: black bar) and find a roughly 2 fold reduction in dyskinesia upon SAG dosing.
Movement disorders: official journal of the Movement Disorder Society, 2015. 30(6): p. 788-95.). Analogous to testing the effects of the stimulation of Smo by SAG in the aphakia mouse model of dyskinesia described above we injected daily L-Dopa (25 mg/kg, IP) for 21 days. All animals developed robust dyskinesia scores. On day 21 animals were randomly assigned into 4 groups.

Parkinson's Patients = conditions: Pahwa et al. 2015; cited from earlier work
[2] = test system: unilateral 6-OHDA lesioned animals; assay: cylinder test of contralateral paw use after unilateral 6-OHDA lesion; assay type: in vivo, mice; conditions: single dose L-Dopa 5 mg/kg IP; random = 50%
Method: FIG. 1 depicts assessment of 6-OHDA induced dopaminergic lesion. All animals of cohorts A and B were lesioned unilaterally by stereotactic injection of 6-OHDA into the dorso-lateral striatum. White bars: saline injected, black bars: L-dopa (5 mg/kg, IP) injected. Unilateral striatal 6-OHDA injection results in […] dopamine hypersensitivity. (**=p<0.001, ***=p<0.0001, t-test; n=9-11/treatment group; mean±SEM);
(§1) Assessing dopamine hyper-sensitivity in the unilateral 6-OHDA model of LID. The well-established unilateral 6-OHDA model of LIDs was used in which the injection of the neurotoxin results in unilateral DA hypersensitivity due to a greater than 80% DA neuron degeneration, and subsequent dopamine hypersensitivity. Two weeks after 6-OHDA injection, the degree of functional deficits are quantified by assessing contralateral paw use in a “cylinder test” (FIG. 1). In untreated, 6-OHDA injected animals contralateral paw use during rearing at the glass wall is reduced from random (50%, dotted line) due to the dopaminergic lesion and resulting reduced dopamine secretion (FIG. 1, white bars). Upon dopamine substitution by a single dose of L-Dopa contralateral paw use is increased above random (50% dotted line) due to dopamine hypersensitivity that developed in response to reduced dopamine levels (FIG. 1 black bars).

[3] = test system: Shh-nLacZ^C/C/Dat-Cre mice; assay: L-Dopa induced dyskinesia in mice with genetic ablation of Shh from dopamine neurons; assay type: in vivo
[4] = test system: unilateral 6-OHDA model of LID; assay: unilateral 6-OHDA model of L-Dopa induced dyskinesia, abnormal induced movements (AIMs) scoring; assay type: in vivo, mice
From the text: as §1
Inhibition of Smo by cyclopamine INCREASES LIDs After the functional assessment of dopaminergic denervation in the 6-OHDA model of LIDS, LIDs are induced by daily injections of L-Dopa (5 mg/kg, IP) for 13 days followed by quantification of dyskinesia. Abnormal movements are assessed for 1 min every 20 min, over a period of 120 min immediately after L-DOPA administration coinciding with the peak of L-Dopa dependent DA release. Abnormal induced movements (AIMs), clearly distinct from natural stereotyped behaviors (i.e., grooming, sniffing, rearing, and gnawing), are classified following a well-established scheme in the field of dyskinesia research into four different subtypes: locomotive (tight contralateral turns), axial (contralateral dystonic posture of the neck and upper body), limb (jerky and fluttering movements of the limb contralateral to the side of the lesion), and orofacial (vacuous jaw movements and tongue protrusions) (Sebastianutto, I., N. Maslava, C. R. Hopkins, and M. A. Cenci, Validation of an improved scale for rating l-DOPA-induced dyskinesia in the mouse and effects of specific dopamine receptor antagonists. Neurobiology of disease, 2016. 96: p. 156-170.). The co-administration of the Smo antagonist cyclopamine (5 mg/kg, IP) together with L-Dopa (5mg/kg, IP) at day 14 results in an approximately 80% increase in LIDs (FIG. 2, black bar) compared to L-Dopa alone (FIG. 2, white bar).
Stimulation of Smo by SAG DECREASES LIDs. Analogous to the experiments testing the inhibition of Smo, the unilateral 6-OHDA model of LIDs was used to test the effect of activating Smo signaling by the agonist SAG (FIG. 5). Two weeks after 6-OHDA injection, LIDs are induced by daily injections of L-Dopa (5 mg/kg, IP) for 16 days. A gradual increase in the display of dyskinesia was observed from day 4 to day 16 (FIG. 5, white bars). Consistent with the hypothesis and conversely to the facilitation of LIDs by the inhibition of Smo signaling, applicant found about a twofold REDUCTION in the display of LIDs upon the co-administration of a L-Dopa dose (5 mg/kg, […] 5, black bar).
Stimulation of Smo by Purmorphamine DECREASES LIDs. Analogous to the experiments testing the inhibition of Smo, the unilateral 6-OHDA model of LIDs was used to test the effect of activating Smo signaling by the agonist Purmorphamine (PUR). Two weeks after 6-OHDA injection, LIDs are induced by daily injections of L-Dopa (5 mg/kg, IP) for 14 days. A gradual increase in the display of dyskinesia was observed from day 4 to day 11 (FIG. 6, white bars). Consistent with the hypothesis and similar to the results with stimulating Smo with SAG and conversely to the facilitation of LIDs by the inhibition of Smo signaling, applicant finds about 40% REDUCTION in the display of LIDs upon the co-administration of a L-Dopa “challenge” dose (20 mg/kg; IP, i.e. 4×the regular dose) together with the Smo agonist Purmorphamine (15 mg/kg, IP) on day 15 (FIG. 6, black bar). […]

[5] = test system: two models of LID (unilateral 6-OHDA model and aphakia mouse line); assay: meta-analysis of dyskinesia measurements across two models of LID, ratio over L-Dopa only controls; assay type: in vivo, mice; conditions: for effect on dyskinesia (words): 6-OHDA model and aphakia mouse line, compared to controls; for reduction in expression of established dyskinesia over L-Dopa only controls: acute stimulation of Smo, combined across models
From the text: Meta-analysis of dyskinesia measurements across two models of LID and three structurally distinct compounds (cyclopamine, SAG, purmorphamine):. A ratiometric expression of LID after treatment with Smo antagonist or agonists over L-Dopa only treated controls allows applicant to present results combined across two distinct models of dyskinesia and three distinct compounds. Setting dyskinesia scores observed in L-Dopa only treated controls as 1 (FIG. 11: dotted line and white bar), we find that inhibition of Smo by cyclopamine results in a 70% INCREASE of dyskinesia (FIG. 11: black bar labeled “a”). Conversely, acute stimulation of Smo by SAG leads to a roughly 2 fold REDUCTION in the expression of established dyskinesia (FIG. 11, black bar labeled “b”) and semi chronic daily dosing with SAG together with L-Dopa (“adjuvants” strategy) leads to about 70% reduction in the formation and display of LIDs (FIG. 11, black bar labeled “c” Consistent and similar to the effect of SAGthe acute stimulation of Smo with Purmorphamine leads to a roughly 2 fold REDUCTION in the display of established LID (FIG. 11, black bar labeled “d”).

SMILES: NC12CC3CC(CC(C3)C1)C2 [Amantadine]
- reduction of LID ([1]; amantadine 40 mg/kg IP with L-Dopa 25 mg/kg IP on day 21, did not reach significance): roughly 30%
- inhibition of dyskinesia (Parkinson's Patients): 23%

SMILES: N[C@@H](Cc1ccc(O)c(O)c1)C(=O)O [L-Dopa]
- contralateral paw use during rearing [2]: > 50%
- formation of LID ([3]; daily L-Dopa 10 mg/kg IP, 16 days, mutants, not in litter controls): formation of LID over time
- increase in LID scores ([4]; daily L-Dopa ramped up to 20 mg/kg IP, day 34 compared to day 27): 3 fold

SMILES: c1ccc2c(Oc3nc(Nc4ccc(N5CCOCC5)cc4)c4ncn(C5CCCCC5)c4n3)cccc2c1 [Purmorphamine]
- reduction in the display of LIDs ([4]; Purmorphamine 15 mg/kg IP with L-Dopa challenge dose 20 mg/kg IP on day 15): about 40%
- reduction of AIMs ([4]; single dose Purmorphamine 15 mg/kg IP co-injected with L-Dopa 20 mg/kg IP after daily L-Dopa 5 mg/kg IP): 2 fold
- effect on dyskinesia (words) [5]: decrease dyskinesia
- effect on dyskinesia (words) ([5]; listed as purmorphamine): delayed and weaker/blunted induction and reduced expression of dyskinesia
- reduction in expression of established dyskinesia over L-Dopa only controls [5]: roughly 2 fold

SMILES: CNC1CCC(N(Cc2cccc(-c3ccncc3)c2)C(=O)c2sc3ccccc3c2Cl)CC1 (stereo not shown) [SAG]
- reduction of dyskinesia score compared to day 20 ([3]; single injection SAG 20 mg/kg IP with L-Dopa on day 22, ratio mutants over controls): about 10 fold
- reduction in 3 paw dyskinesia ([1]; SAG 20 mg/kg IP with L-Dopa 20 mg/kg IP on day 29, vs day 28): roughly 2 fold
- reduction in the display of LID ([1]; SAG 20 mg/kg IP with L-Dopa 25 mg/kg IP on day 21, compared to controls): 2 fold
- effect on AIMs induced by daily L-Dopa [1]: decreases abnormal induced movements
- LID scores after SAG wash-out ([4]; L-Dopa 5 mg/kg IP daily without SAG, d16 to d34, after 14 days of L-Dopa/SAG): indistinguishable from control groups
- effect of chronic dosing with SAG together with L-Dopa on AIMs ([4]; SAG as adjuvant to daily L-Dopa): reversible, dose dependent build-up of a reduction of abnormal induced movements; also recorded: build-up of a reduction of abnormal induced movements over 7 days
- reduction of dyskinesia ([4]; daily SAG 0.8 mg/kg IP with L-Dopa 5 mg/kg IP, day 12): 45%
- reduction of dyskinesia ([4]; daily SAG 2.5 mg/kg with L-Dopa 5 mg/kg IP, 4 days of dosing): 50%
- reduction of dyskinesia ([4]; daily SAG 7 mg/kg IP with L-Dopa 5 mg/kg IP, day 4): about 50%
- reduction of dyskinesia ([4]; daily SAG 7 mg/kg IP with L-Dopa 5 mg/kg IP, day 14): about 80%
- reduction of AIMS scores over the control group ([4]; daily SAG 10 mg/kg IP with L-Dopa 5 mg/kg IP for 14 days, day 14): greater than 2 fold
- reduction in LIDs compared to controls ([4]; within subject escalation, SAG 15 mg/kg IP, day 51, L-Dopa 20 mg/kg IP): greater than 2 fold
- effect on dyskinesia (words) [5]: decrease dyskinesia; also recorded: delayed and weaker/blunted induction and reduced expression of dyskinesia
- reduction in expression of established dyskinesia over L-Dopa only controls [5]: roughly 2 fold
- reduction in the formation and display of LIDs over L-Dopa only controls ([5]; semi chronic daily dosing with SAG together with L-Dopa): about 70%

SMILES: CC1=C2C[C@H]3[C@@H](CC=C4C[C@@H](O)CC[C@@]43C)[C@@H]2CC[C@]12O[C@@H]1C[C@H](C)CN[C@H]1[C@H]2C [cyclopamine]
- effect on AIMs induced by daily L-Dopa [1]: increases abnormal induced movements
- increase in 3-paw dyskinesia ([1]; cyclopamine 5 mg/kg IP with L-Dopa 20 mg/kg IP on day 8, compared to day 7): roughly 3 fold
- dyskinesia score relative to 7 days of L-Dopa only dosing ([1]; daily cyclopamine 5 mg/kg IP with L-Dopa 20 mg/kg IP, d11 compared to d7): 7 fold
- effect on dyskinesia (words) [5]: more rapid induction and stronger expression of dyskinesia
- effect on dyskinesia (words) ([5]; listed as Cyclopamine): increases dyskinesia
- increase of dyskinesia over L-Dopa only controls ([5]; combined across two models, controls set to 1): 70%

— patent publication US20170224643A1, “METHOD FOR AVOIDING OR INHIBITION OF DYSKINESIA” (Research Foundation of the City University of New York, priority 2016, published 2017)
